According to patent publication US9115148B2, “Spirocyclic derivatives as histone deacetylase inhibitors” (DAC S.R.L., priority 2008, dated 2015):

Experiments:
K562 cells = test: Cell growth, CellTiter-Glo Luminescent Cell Viability Assay, K562; format: cell-based; settings: Homo sapiens, 72 h incubation, read-out: IC50 antiproliferative assay K562
Excerpt: (§1) CellTiter-Glo® Luminescent Cell Viability Assay (Promega) is a homogeneous method of determining the number of viable cells in culture based on quantitation of the present ATP, which indicates the presence of metabolically active cells. The homogeneous assay procedure involves addition of a single reagent (CellTiter-Glo® Reagent) directly to the cells, which leads to cell lysis and generation of a luminescent signal proportional to the amount of the ATP and the number of cells present in culture. The assay relies on the properties of a proprietary thermostable luciferase (Ultra-Glo® recombinant luciferase), which generates a luminescent signal.
(§2) K562, A549 and HCT-116 cells, in exponential growth, were incubated for 72 h with different concentrations of the inhibitors. After 72 h, a volume of CellTiter-Glo® Reagent equal to the volume of cell culture medium was added. The content was mixed for 2 min to induce cell lysis. The luminescence was recorded after further 10 min at RT in order to obtain a stabilized luminescent signal.
(§3) The IC50 was calculated using GraphPad Software.
(§4) IC50 results were allocated to one of 3 ranges as follows: Range A: IC50≦1.0 μM; Range B: from 1.0 to 3.0 μM; Range C: IC50≧3.0 μM.

[1] = test system: HDAC (nuclear fraction of Hela cells); test: Assay of enzyme inhibition of HDAC (BIOMOL Kit); format: biochemical; settings: substrate 200 μM, 15 min at RT
Protocol: 2.2 Assay of Enzyme Inhibition of HDAC
The in-vitro activity of HDAC inhibitors was assayed using a BIOMOL Kit, according to the instructions from the manufacturer (Biomolecular Research Laborator). 15 μl of 30× diluted nuclear fraction of Hela cells, was diluted to 50 μl with the assay buffer containing the HDAC inhibitor and the substrate (lysine with acetylated amino group on the side chain) at a concentration of 200 μM. The samples were incubated for 15 min at RT and then exposed to a developer (10 min at RT). In this last step a fluorophore was produced, whose fluorescence was measured using an excitation wavelength of 355 nm and an emission at 460 nm. The IC50 was calculated using GraphPad Software.

A549 cells = test: Cell growth, CellTiter-Glo Luminescent Cell Viability Assay, A549; format: cell-based; settings: Homo sapiens, 72 h incubation, read-out: IC50 antiproliferative assay A549
Excerpt: as §1, §2, §3, §4

HCT-116 cells = test: Cell growth, CellTiter-Glo Luminescent Cell Viability Assay, HCT-116; format: cell-based; settings: Homo sapiens, HCT116 cells, 72 h incubation, read-out: IC50 antiproliferative assay HCT116
Excerpt: as §1, §2, §3, §4

| Compound | IC50 (K562 cells) [nM] | IC50 [1] [nM] | IC50 (A549 cells) [nM] | IC50 (HCT-116 cells) [nM] |
| --- | --- | --- | --- | --- |
| O=C(/C=C/c1ccc2c(c1)C(=O)C1(CCNCC1)O2)NO [Example 20, (E)-3-{3-oxo-spiro[benzofuran-2(3H), 4′-piperidin]-5-yl}-N-hydroxy-acrylamide] | 1000 to 3000 | 100 to 1000 | 1000 to 3000 | ≤ 1000 |
| O=C(/C=C/c1ccc2c(c1)C(=O)C1(CCN(Cc3ccccc3)CC1)O2)NO [Example 21, (E)-3-{1′-Benzyl-3-oxo-spiro[benzofuran-2(3H), 4′-piperidin]-5-yl}-N-hydroxy-acrylamide] | ≥ 3000 | 100 to 1000 | ≥ 3000 | ≥ 3000 |
| CC(=O)N1CCC2(CC1)Oc1ccc(/C=C/C(=O)NO)cc1C2=O [Example 22, (E)-3-{1′-Acetyl-3-oxo-spiro[benzofuran-2(3H), 4′-piperidin]-5-yl}-N-hydroxy-acrylamide] | ≥ 3000 | > 1000 | ≥ 3000 | ≥ 3000 |
| O=C(/C=C/c1ccc2c(c1)C(=O)C1(CCN(C(=O)c3ccccc3)CC1)O2)NO [Example 23, (E)-3-{1′-Benzoyl-3-oxo-spiro[benzofuran-2(3H), 4′-piperidin]-5-yl}-N-hydroxy-acrylamide] | ≥ 3000 | > 1000 | ≥ 3000 | ≥ 3000 |
| CCOC(=O)N1CCC2(CC1)Oc1ccc(/C=C/C(=O)NO)cc1C2=O [Example 24, (E)-3-{1′-Ethyloxycarbonyl-3-oxo-spiro[benzofuran-2(3H), 4′-piperidin]-5-yl}-N-hydroxy-acrylamide] | 1000 to 3000 | > 1000 | ≥ 3000 | ≥ 3000 |
| O=C(/C=C/c1ccc2c(c1)C(=O)NC1(CCN(Cc3ccccc3)CC1)O2)NO [Example 25, (E)-3-{1′-Benzyl-3,4-dihydro-4-oxo-spiro[2H-(1,3)-benzoxazine-2,4′-piperidin]-6-yl}-N-hydroxy-acrylamide] | ≤ 1000 | < 100 | 1000 to 3000 | ≤ 1000 |
| O=C(/C=C/c1ccc2c(c1)C(=O)NC1(CCN(Cc3ccccc3)CC1)N2)NO [Example 26, (E)-3-{1-Benzyl-3′,4′-dihydro-4′-oxo-spiro[piperidine-4,2′(1′H)-quinazoline]-6′-yl}-N-hydroxy-acrylamide] | ≥ 3000 | 100 to 1000 | ≥ 3000 | ≥ 3000 |
| O=C(/C=C/c1ccc2c(c1)C(=O)CC1(CCN(c3ncccn3)CC1)O2)NO [Example 27, (E)-3-{1′-Pyrimidin-2-yl-4-oxo-spiro[chromane-2,4′-piperidine]-6-yl}-N-hydroxy-acrylamide] | ≥ 3000 | 100 to 1000 | ≥ 3000 | 1000 to 3000 |
| Cc1ccccc1CN1CCC2(CC1)CC(=O)c1cc(/C=C/C(=O)NO)ccc1O2 [Example 28, (E)-3-{1′-(2-Methyl-benzyl)-4-oxo-spiro[chromane-2,4′-piperidine]-6-yl}-N-hydroxy-acrylamide] | ≤ 1000 | 100 to 1000 | 1000 to 3000 | 1000 to 3000 |
| Cc1cccc(CN2CCC3(CC2)CC(=O)c2cc(/C=C/C(=O)NO)ccc2O3)c1 [Example 29, (E)-3-{1′-(3-Methyl-benzyl)-4-oxo-spiro[chromane-2,4′-piperidine]-6-yl}-N-hydroxy-acrylamide] | ≤ 1000 | 100 to 1000 | 1000 to 3000 | ≤ 1000 |
| Cc1ccc(CN2CCC3(CC2)CC(=O)c2cc(/C=C/C(=O)NO)ccc2O3)cc1 [Example 30, (E)-3-{1′-(4-Methyl-benzyl)-4-oxo-spiro[chromane-2,4′-piperidine]-6-yl}-N-hydroxy-acrylamide] | ≤ 1000 | 100 to 1000 | 1000 to 3000 | ≤ 1000 |
| COc1ccccc1CN1CCC2(CC1)CC(=O)c1cc(/C=C/C(=O)NO)ccc1O2 [Example 31, (E)-3-{1′-(2-Methoxy-benzyl)-4-oxo-spiro[chromane-2,4′-piperidine]-6-yl}-N-hydroxy-acrylamide] | ≤ 1000 | 100 to 1000 | ≤ 1000 | ≤ 1000 |
| COc1cccc(CN2CCC3(CC2)CC(=O)c2cc(/C=C/C(=O)NO)ccc2O3)c1 [Example 32, (E)-3-{1′-(3-Methoxy-benzyl)-4-oxo-spiro[chromane-2,4′-piperidine]-6-yl}-N-hydroxy-acrylamide] | ≤ 1000 | 100 to 1000 | 1000 to 3000 | ≤ 1000 |
| COc1ccc(CN2CCC3(CC2)CC(=O)c2cc(/C=C/C(=O)NO)ccc2O3)cc1 [Example 33, (E)-3-{1′-(4-Methoxy-benzyl)-4-oxo-spiro[chromane-2,4′-piperidine]-6-yl}-N-hydroxy-acrylamide] | ≤ 1000 | 100 to 1000 | ≤ 1000 | ≤ 1000 |
| O=C(/C=C/c1ccc2c(c1)C(=O)CC1(CCN(Cc3ccccc3F)CC1)O2)NO [Example 34, (E)-3-{1′-(2-Fluoro-benzyl)-4-oxo-spiro[chromane-2,4′-piperidine]-6-yl}-N-hydroxy-acrylamide] | ≤ 1000 | 100 to 1000 | 1000 to 3000 | ≤ 1000 |
| O=C(/C=C/c1ccc2c(c1)C(=O)CC1(CCN(Cc3cccc(F)c3)CC1)O2)NO [Example 35, (E)-3-{1′-(3-Fluoro-benzyl)-4-oxo-spiro[chromane-2,4′-piperidine]-6-yl}-N-hydroxy-acrylamide] | ≤ 1000 | 100 to 1000 | 1000 to 3000 | 1000 to 3000 |
| O=C(/C=C/c1ccc2c(c1)C(=O)CC1(CCN(Cc3ccc(F)cc3)CC1)O2)NO [Example 36, (E)-3-{1′-(4-Fluoro-benzyl)-4-oxo-spiro[chromane-2,4′-piperidine]-6-yl}-N-hydroxy-acrylamide] | ≤ 1000 | 100 to 1000 | 1000 to 3000 | ≤ 1000 |
| O=C(/C=C/c1ccc2c(c1)C(=O)CC1(CCN(Cc3ccccc3Cl)CC1)O2)NO [Example 37, (E)-3-{1′-(2-Chloro-benzyl)-4-oxo-spiro[chromane-2,4′-piperidine]-6-yl}-N-hydroxy-acrylamide] | 1000 to 3000 | 100 to 1000 | 1000 to 3000 | 1000 to 3000 |
| O=C(/C=C/c1ccc2c(c1)C(=O)CC1(CCN(Cc3cccc(Cl)c3)CC1)O2)NO [Example 38, (E)-3-{1′-(3-Chloro-benzyl)-4-oxo-spiro[chromane-2,4′-piperidine]-6-yl}-N-hydroxy-acrylamide] | ≤ 1000 | 100 to 1000 | 1000 to 3000 | 1000 to 3000 |
| O=C(/C=C/c1ccc2c(c1)C(=O)CC1(CCN(Cc3ccc(Cl)cc3)CC1)O2)NO [Example 39, (E)-3-{1′-(4-Chloro-benzyl)-4-oxo-spiro[chromane-2,4′-piperidine]-6-yl}-N-hydroxy-acrylamide] | ≤ 1000 | 100 to 1000 | 1000 to 3000 | ≤ 1000 |
| O=C(/C=C/c1ccc2c(c1)C(=O)CC1(CCN(Cc3ccccn3)CC1)O2)NO [Example 40, (E)-3-{1′-(Pyridin-2-ylmethyl)-4-oxo-spiro[chromane-2,4′-piperidine]-6-yl}-N-hydroxy-acrylamide] | ≤ 1000 | 100 to 1000 | 1000 to 3000 | ≤ 1000 |
| O=C(/C=C/c1ccc2c(c1)C(=O)CC1(CCN(Cc3cccnc3)CC1)O2)NO [Example 41, (E)-3-{1′-(Pyridin-3-ylmethyl)-4-oxo-spiro[chromane-2,4′-piperidine]-6-yl}-N-hydroxy-acrylamide] | 1000 to 3000 | 100 to 1000 | 1000 to 3000 | ≤ 1000 |
| O=C(/C=C/c1ccc2c(c1)C(=O)CC1(CCN(Cc3ccncc3)CC1)O2)NO [Example 42, (E)-3-{1′-(Pyridin-4-ylmethyl)-4-oxo-spiro[chromane-2,4′-piperidine]-6-yl}-N-hydroxy-acrylamide] | 1000 to 3000 | 100 to 1000 | 1000 to 3000 | ≤ 1000 |
| CS(=O)(=O)N1CCC2(CC1)CC(=O)c1cc(/C=C/C(=O)NO)ccc1O2 [Example 43, (E)-3-{1′-Methanesulfonyl-4-oxo-spiro[chromane-2,4′-piperidine]-6-yl}-N-hydroxy-acrylamide] | ≥ 3000 | 100 to 1000 | ≥ 3000 | ≥ 3000 |
| O=C(/C=C/c1ccc2c(c1)C(=O)CC1(CCN(S(=O)(=O)c3ccccc3)CC1)O2)NO [Example 44, (E)-3-{1′-Phenylsulfonyl-4-oxo-spiro[chromane-2,4′-piperidine]-6-yl}-N-hydroxy-acrylamide] | 1000 to 3000 | 100 to 1000 | ≥ 3000 | 1000 to 3000 |
